In patent publication US20080009517A1, “Use of nelfinavir as a radiation sensitizer” (The Trustees of the University of Pennsylvania, priority 2005, published 2008):
“Also recorded” adds a separate entry of the source.

What was measured:
[1] = tested on: non-small cell lung carcinoma; conditions: randomized phase II trial; cited from earlier work
MIAPACA2 = assay: Clonogenic assay, radiation sensitization, MIAPACA2 cells; format: cell-based; conditions: MIAPACA2, 2 Gy, nelfinavir added at least one hour prior to irradiation; mean +/- spread
Procedure: (§1) Cultures of cells in log growth phase were counted and plated in 60-mm dishes containing 4 ml of media. The cells were allowed to attach and nelfinavir was added to cultures at least one hour prior to irradiation. Cells were irradiated with a Mark I cesium irradiator (J. L. Shepherd, San Fernando, Calif.) at a dose rate of 1.6 Gy/min. Colonies were stained and counted 10-14 days after irradiation. A light box was used to assist in counting colonies. The surviving fraction was calculated by dividing the number of colonies formed by the number of cells plated times plating efficiency (Table 1). Each point value represents the mean surviving fraction from at least six replicate dishes.

Akt phosphorylation = assay: Western blot of Akt phosphorylation in white blood cells of HIV patients; format: in vivo, human; conditions: HIV patients taking nelfinavir vs. HIV patients not actively using nelfinavir
Source text: As a proof of principle, it was examined whether there was down-regulation of Akt in HIV patients who are being actively treated with HPIs. Blood samples were obtained from HIV patients on courses of various combinations of drugs. WBCs were isolated and stained for Akt using a Western Blot. Patients taking nelfinavir had decreased Akt phosphorylation compared to the levels of Akt phosphorylation detected in HIV patients who were not actively using nelfinavir (FIG. 7).

SQ20B = assay: Clonogenic assay, radiation sensitization, SQ20B cells; format: cell-based, human; conditions: SQ2OB cells, 5 μM nelfinavir + 2 Gy radiation; control 70%
Procedure: as §1

SQ2OB xenograft tumors = assay: In vivo to in vitro clonogenic assay in nude mice with SQ2OB tumors
Procedure: In an in vivo experiment to examine the nelfinavir-mediated radiation sensitization of tumors, tumors in animals were radiation-sensitized using nelfinavir. FIG. 5 illustrates the results of an in vivo to in vitro clonogenic assay in nude mice with SQ2OB tumors. Mice were treated with 8 Gy radiation, with and without nelfinavir at 0.6 mg/day. […] FIG. 6 illustrates the results of in vivo to in vitro clonogenic assays used to examine in vivo sensitization of tumor cells to drugs. Nelfinavir was delivered to mice at 0.6 mg/day via osmotic pump. The mice had SQ2OB xenograft tumors on hind leg. The pump was placed in mouse 2 days prior to experiment. On the day of experiment, the mouse was anesthetized and irradiated to 8 Gy. The tumor was then harvested and a cell suspension made. The cells were plated and the plating efficiency determined. The result indicted the number of cells that were viable and able to reproduce by forming colonies in each individual group (plating efficiency).

[2] = tested on: Akt phosphorylation at Ser 473; assay: Western blot analysis of Akt phosphorylation in SQ2OB cells; format: cell-based, human
Source text: Using Western blot analysis, a human head-and-neck cancer cell line, SQ2OB, containing a constitutively-active EGFR receptor and thus, increased signaling through PI3K, was examined for Akt phosphorylation.

T24 = assay: Clonogenic assay, radiation sensitization, T24 cells; format: cell-based; conditions: T24, 2 Gy, nelfinavir added at least one hour prior to irradiation; mean +/- spread
Procedure: as §1

A549 = assay: Clonogenic assay, radiation sensitization, A549 cells; format: cell-based; conditions: A549, 2 Gy, nelfinavir added at least one hour prior to irradiation; mean +/- spread
Procedure: as §1

REF = assay: Clonogenic assay, radiation sensitization, REF cells; format: cell-based; conditions: 2 Gy, nelfinavir added at least one hour prior to irradiation, mean +/- spread
Procedure: as §1

Structure (SMILES)	radiographic response rate [1] [%]	nelfinavir SF2 (MIAPACA2)	Akt phosphorylation in white blood cells (Akt phosphorylation)	surviving fraction after 2 Gy (SF2) (SQ20B) [%]	plating efficiency of tumor cells derived from the mice (SQ2OB xenograft tumors; nelfinavir 0.6 mg/day + 8 Gy radiation)	plating efficiency of tumor cells derived from the mice (SQ2OB xenograft tumors; nelfinavir alone 0.6 mg/day, no radiation)	Akt phosphorylation at Ser 473 ([2]; 5 μM nelfinavir)	Akt phosphorylation at Ser 473 ([2]; 10 μM nelfinavir)	nelfinavir SF2 (T24)	nelfinavir SF2 (A549)	nelfinavir SF2 (REF)
COc1cc2ncnc(Nc3ccc(F)c(Cl)c3)c2cc1OCCCN1CCOCC1 [Iressa, gefitinib]	~10	–	–	–	–	–	–	–	–	–	–
Cc1c(O)cccc1C(=O)N[C@@H](CSc1ccccc1)[C@H](O)CN1C[C@H]2CCCC[C@H]2C[C@H]1C(=O)NC(C)(C)C [nelfinavir]	–	0.526 +/− 0.040	decreased	40	synergistically decreased; also recorded: significant increase in cell kill	did not result in a change; also recorded: no toxicity	down-regulation	abolished	0.452 +/− 0.023	0.410 +/− 0.062	0.397 +/− 0.054
